According to ChEMBL document CHEMBL1201862, “PubChem BioAssay data set” (2004):
Calls of active or inactive are those of the source.

What was measured:
[1] = target: T1, Endoribonuclease toxin MazF (Escherichia coli K-12, UniProt P0AE70); assay: substrate-only fluorescence increase artefacts – biochemical, single-stranded RNase substrate, counter-screen for MazEF activator project, dose response (AID 588502); type: functional
T1 sequence (P0AE70 whole entry): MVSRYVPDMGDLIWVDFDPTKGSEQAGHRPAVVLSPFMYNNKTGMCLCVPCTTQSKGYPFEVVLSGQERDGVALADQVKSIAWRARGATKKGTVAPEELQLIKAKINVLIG

[2] = target: T1, Endoribonuclease toxin MazF; assay: activation of MazEF endoribonuclease cleavage – biochemical, fluorescence, single-stranded RNA substrate, uHTS hits, dose response (AID 588481); type: functional
H9c2 = assay: cells; type: functional, cell-based; details: Rattus norvegicus, H9c2, Myocardium
Cytochrome P450 3A4 = Cytochrome P450 3A4 (Homo sapiens, UniProt P08684); details: Potency;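 note: confirmatory qHTS run detecting inhibitors and substrates of CYP3A4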
Chain of Cytochrome P450 3A4 (P08684 whole entry): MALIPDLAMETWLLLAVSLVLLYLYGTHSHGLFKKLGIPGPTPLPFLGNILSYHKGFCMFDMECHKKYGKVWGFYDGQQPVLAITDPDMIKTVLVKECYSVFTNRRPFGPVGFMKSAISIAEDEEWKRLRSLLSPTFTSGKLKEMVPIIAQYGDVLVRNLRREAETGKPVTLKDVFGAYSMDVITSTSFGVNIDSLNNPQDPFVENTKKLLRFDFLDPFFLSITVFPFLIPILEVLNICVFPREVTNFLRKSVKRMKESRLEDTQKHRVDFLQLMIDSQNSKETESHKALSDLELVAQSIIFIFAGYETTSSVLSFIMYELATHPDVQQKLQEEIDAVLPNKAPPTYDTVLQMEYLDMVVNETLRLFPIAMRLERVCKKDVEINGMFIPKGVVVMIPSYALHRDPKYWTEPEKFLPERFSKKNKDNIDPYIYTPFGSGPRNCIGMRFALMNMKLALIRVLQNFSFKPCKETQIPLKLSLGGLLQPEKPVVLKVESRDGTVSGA

Large T antigen = Large T antigen (Simian virus 40, UniProt P03070); type: functional, Betapolyomavirus macacae;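 note: Confirmatory-stage PubChem screen for compounds that inhibit SV40 T antigen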
Chain of Large T antigen (P03070 whole entry): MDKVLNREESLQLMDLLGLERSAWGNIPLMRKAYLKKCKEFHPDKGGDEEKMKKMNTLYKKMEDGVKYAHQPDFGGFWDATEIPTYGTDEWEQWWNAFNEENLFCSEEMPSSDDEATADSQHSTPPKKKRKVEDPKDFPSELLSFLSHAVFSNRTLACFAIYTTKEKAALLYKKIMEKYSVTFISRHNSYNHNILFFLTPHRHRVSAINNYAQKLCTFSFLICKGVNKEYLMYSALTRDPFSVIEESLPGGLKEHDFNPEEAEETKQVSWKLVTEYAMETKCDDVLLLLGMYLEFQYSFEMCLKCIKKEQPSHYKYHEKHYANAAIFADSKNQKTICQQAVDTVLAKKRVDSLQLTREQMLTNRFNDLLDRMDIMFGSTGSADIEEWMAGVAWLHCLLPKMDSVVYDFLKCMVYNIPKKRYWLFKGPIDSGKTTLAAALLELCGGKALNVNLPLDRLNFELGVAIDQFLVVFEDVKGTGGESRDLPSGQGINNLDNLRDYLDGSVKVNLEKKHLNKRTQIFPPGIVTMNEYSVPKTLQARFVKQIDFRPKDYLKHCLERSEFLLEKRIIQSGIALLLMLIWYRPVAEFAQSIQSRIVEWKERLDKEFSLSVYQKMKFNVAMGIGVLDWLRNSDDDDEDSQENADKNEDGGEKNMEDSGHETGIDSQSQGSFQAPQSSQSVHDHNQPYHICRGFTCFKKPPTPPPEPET

[3] = target: Heat shock protein HSP 90-alpha (Homo sapiens, UniProt P07900); type: functional, organism-based
BJ [4] = assay: BJ-TERT fibroblast viability loss – cell-based, RAS-independent, luminescence, dose response (AID 1933); type: functional; details: Homo sapiens
BJ [5] = assay: BJ-TERT-LT-ST fibroblast viability loss – cell-based, RAS-independent, luminescence, dose response (AID 1935); type: functional; details: Homo sapiens;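 note: BJ fibroblasts immortalized with TERT plus LT and ST oncogenes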
[6] = NIH-3T3 fibroblast cytotoxicity, dose response, cytotoxicity control, cell-based, fluorescence, Alamar Blue, secondary assay (AID 2327); type: functional;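 note: NIH-3T3 mouse fibroblasts cultured with fluconazole at 8 µg/mL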
INS1 = assay: INS-1E survival protection against cytokine death – cell-based, luminescence, retest, dose response (AID 449756); type: functional; details: Rattus norvegicus;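 note: cell death triggered by IL-1 beta plus TNF-alpha plus IFN-gamma mixture; protective hits raise ATP signal compared with cytokine alone wells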
[7] = DRD fibroblast viability loss – cell-based, non-viral oncogenic, luminescence, dose response (AID 1934); type: functional; details: Homo sapiens
[8] = fluconazole-exposed Candida albicans growth modulators – fluorescence, retest, confirmation (AID 2467); type: functional, cell-based
BJ [9] = assay: cells; type: functional, cell-based; details: Homo sapiens
[10] = microbe, parasite or virus in culture; type: functional; details: Mycobacterium tuberculosis
[11] = target: T2, Corticotropin-releasing factor receptor 2/Corticotropin-releasing factor-binding protein (Homo sapiens, UniProt P24387+Q13324); assay: activators of CRF receptor 2 with binding protein – uHTS hits, confirmation (AID 602473); type: functional; details: read-out: EC50_Mean
T2 sequence (Q13324 whole entry): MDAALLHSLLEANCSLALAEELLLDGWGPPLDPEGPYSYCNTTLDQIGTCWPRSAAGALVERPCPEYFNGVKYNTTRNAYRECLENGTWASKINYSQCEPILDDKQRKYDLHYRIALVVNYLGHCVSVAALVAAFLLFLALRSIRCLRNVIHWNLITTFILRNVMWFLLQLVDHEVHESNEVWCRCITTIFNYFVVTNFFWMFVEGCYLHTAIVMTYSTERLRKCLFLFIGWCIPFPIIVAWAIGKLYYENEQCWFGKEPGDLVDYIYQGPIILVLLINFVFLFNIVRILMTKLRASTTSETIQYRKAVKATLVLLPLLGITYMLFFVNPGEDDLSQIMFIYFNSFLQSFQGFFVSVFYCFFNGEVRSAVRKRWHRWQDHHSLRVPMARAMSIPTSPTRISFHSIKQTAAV
T2 sequence (P24387 whole entry): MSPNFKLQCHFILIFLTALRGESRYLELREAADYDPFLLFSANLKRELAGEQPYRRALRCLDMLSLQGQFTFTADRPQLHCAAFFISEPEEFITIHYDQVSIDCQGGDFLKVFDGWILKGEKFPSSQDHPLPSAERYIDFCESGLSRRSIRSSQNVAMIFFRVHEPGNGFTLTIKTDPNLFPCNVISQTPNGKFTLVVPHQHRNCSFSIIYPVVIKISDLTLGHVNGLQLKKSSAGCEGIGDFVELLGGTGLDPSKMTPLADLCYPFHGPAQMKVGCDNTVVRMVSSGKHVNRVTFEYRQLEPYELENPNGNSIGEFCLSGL

[12] = target: T2, Corticotropin-releasing factor receptor 2/Corticotropin-releasing factor-binding protein; assay: Dose Response confirmation of uHTS hits for small molecule antagonists of the CRF-binding protein and CRF-R2 receptor complex.; type: functional; details: read-out: IC50_Mean
Fatty acid synthase [13] = target: T3, Fatty acid synthase (Homo sapiens, UniProt P49327); assay: inhibition of human FAS-TE enzyme activity – biochemical, endpoint fluorescence intensity, uHTS hits, dose response (AID 624327); type: functional;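 note: fluorescence from hydrolysis of an O-methyl fluorescein acyl ester substrate by the enzyme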
T3 sequence (P49327 whole entry): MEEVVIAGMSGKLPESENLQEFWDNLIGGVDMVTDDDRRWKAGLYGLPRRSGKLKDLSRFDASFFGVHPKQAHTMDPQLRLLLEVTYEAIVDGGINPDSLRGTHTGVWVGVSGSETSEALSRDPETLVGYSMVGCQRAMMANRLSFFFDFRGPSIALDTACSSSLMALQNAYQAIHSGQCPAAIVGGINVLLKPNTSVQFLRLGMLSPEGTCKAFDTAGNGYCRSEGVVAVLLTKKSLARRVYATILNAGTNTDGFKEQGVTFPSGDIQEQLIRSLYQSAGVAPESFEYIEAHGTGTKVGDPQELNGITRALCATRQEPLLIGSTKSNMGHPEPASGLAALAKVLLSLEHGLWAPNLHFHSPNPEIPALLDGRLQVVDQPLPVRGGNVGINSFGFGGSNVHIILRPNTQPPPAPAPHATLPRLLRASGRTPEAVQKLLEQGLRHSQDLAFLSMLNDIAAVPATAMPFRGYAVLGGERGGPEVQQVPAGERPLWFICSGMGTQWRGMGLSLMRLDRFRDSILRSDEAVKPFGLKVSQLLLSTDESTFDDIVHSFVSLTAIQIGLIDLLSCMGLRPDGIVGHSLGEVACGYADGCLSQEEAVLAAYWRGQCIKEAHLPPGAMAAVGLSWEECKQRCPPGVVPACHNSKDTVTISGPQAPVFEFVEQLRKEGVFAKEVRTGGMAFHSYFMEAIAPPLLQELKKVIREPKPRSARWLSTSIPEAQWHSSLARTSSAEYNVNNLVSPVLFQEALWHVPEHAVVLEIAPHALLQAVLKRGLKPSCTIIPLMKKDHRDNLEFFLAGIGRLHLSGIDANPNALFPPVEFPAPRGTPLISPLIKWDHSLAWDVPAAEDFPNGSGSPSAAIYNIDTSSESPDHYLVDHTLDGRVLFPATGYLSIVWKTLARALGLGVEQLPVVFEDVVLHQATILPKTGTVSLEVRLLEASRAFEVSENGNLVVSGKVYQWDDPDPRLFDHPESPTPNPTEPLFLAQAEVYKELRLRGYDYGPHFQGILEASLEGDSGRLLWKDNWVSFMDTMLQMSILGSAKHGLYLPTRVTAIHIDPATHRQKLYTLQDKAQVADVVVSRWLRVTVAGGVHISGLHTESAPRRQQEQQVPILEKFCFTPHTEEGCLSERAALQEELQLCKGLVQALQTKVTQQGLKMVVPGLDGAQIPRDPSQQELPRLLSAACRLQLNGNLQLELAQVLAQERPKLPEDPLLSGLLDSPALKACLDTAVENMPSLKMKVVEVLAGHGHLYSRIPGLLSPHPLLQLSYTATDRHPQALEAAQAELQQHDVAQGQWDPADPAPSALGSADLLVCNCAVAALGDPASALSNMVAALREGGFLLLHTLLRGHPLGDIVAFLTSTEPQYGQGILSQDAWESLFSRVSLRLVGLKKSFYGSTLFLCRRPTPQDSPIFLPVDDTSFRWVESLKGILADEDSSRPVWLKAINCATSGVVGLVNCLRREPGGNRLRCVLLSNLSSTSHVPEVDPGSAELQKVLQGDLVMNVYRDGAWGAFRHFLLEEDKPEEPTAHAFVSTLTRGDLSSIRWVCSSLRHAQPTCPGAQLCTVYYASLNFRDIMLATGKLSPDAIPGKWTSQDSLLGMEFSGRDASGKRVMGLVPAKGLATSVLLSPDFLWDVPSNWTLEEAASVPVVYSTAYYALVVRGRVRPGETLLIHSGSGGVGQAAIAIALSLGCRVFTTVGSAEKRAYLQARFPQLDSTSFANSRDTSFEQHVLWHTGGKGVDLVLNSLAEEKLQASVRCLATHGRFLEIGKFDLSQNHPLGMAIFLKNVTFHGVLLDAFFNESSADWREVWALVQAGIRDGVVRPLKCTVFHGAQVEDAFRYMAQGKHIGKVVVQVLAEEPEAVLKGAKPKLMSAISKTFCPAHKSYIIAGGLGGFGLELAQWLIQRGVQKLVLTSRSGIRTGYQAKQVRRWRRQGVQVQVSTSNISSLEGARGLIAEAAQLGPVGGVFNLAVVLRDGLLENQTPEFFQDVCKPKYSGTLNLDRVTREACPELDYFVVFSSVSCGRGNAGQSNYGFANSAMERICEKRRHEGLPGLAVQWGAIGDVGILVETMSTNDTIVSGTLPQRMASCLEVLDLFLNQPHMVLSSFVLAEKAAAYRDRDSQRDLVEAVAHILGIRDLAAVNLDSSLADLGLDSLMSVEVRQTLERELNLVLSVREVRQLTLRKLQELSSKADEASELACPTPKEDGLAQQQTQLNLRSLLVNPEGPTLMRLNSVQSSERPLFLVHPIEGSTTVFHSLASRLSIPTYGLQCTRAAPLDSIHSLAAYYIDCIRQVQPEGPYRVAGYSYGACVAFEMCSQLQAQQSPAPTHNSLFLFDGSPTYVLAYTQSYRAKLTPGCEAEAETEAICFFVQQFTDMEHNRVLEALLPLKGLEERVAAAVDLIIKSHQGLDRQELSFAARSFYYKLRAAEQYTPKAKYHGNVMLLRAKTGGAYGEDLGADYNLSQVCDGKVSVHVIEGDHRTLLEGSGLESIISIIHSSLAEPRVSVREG

Fatty acid synthase [14] = target: T3, Fatty acid synthase; assay: inhibition of human FAS-TE enzyme activity – biochemical, kinetic fluorescence intensity, dose response (AID 624326); type: functional;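 note: rate of fluorescence rise from hydrolysis of a fluorogenic O-methyl fluorescein ester substrate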
[15] = target: T4, Rac GTPase-activating protein 1 (Homo sapiens, UniProt Q9H0H5); assay: blockers of MgcRacGAP-driven Rac1 GTP hydrolysis – biochemical, ADP Hunter fluorescence, primary and confirmatory, confirmation (AID 624330); type: functional
T4 sequence (Q9H0H5 whole entry): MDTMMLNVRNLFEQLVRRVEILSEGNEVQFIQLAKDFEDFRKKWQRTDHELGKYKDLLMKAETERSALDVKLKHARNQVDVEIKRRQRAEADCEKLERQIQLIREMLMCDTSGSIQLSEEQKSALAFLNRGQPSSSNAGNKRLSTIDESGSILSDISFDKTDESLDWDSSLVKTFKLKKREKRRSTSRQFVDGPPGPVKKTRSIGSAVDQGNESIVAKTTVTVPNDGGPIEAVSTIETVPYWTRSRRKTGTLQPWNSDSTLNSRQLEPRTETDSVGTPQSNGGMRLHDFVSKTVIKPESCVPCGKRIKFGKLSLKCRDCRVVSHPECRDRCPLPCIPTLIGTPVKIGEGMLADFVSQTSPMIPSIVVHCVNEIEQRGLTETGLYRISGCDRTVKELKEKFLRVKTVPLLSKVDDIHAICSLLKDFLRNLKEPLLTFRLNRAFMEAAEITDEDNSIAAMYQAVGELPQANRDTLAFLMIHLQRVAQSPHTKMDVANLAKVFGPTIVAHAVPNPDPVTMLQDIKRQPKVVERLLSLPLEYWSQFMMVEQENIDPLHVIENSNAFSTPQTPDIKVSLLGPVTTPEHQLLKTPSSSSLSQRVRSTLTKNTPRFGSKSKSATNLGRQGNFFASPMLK

Streptokinase A = target: T5, Streptokinase A (Streptococcus pyogenes serotype M1, UniProt P10520); assay: viability-normalized secreted streptokinase activity reduction – plasminogen activation absorbance, OD405, dose response (AID 1914); type: functional, Streptococcus pyogenes M1 GAS;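 note: secreted streptokinase activity via plasminogen activation per viability signal from cell pellet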
T5 sequence (P10520 whole entry): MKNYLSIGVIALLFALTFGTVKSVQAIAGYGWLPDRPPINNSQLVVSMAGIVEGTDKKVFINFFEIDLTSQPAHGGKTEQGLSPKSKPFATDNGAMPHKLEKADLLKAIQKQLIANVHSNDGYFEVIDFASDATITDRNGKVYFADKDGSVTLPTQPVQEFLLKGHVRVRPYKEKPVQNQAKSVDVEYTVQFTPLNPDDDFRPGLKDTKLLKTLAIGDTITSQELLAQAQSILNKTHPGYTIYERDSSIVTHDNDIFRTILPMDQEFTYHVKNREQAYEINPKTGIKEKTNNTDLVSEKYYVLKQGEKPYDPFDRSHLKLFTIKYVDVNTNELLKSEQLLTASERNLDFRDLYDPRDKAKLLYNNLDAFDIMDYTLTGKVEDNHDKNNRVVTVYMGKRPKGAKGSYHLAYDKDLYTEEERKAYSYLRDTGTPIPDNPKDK

Streptococcus = assay: GAS UMAA2166 growth inhibition – luminescence, BacTiterGlo, counter-screen for streptokinase expression inhibitor project, dose response (AID 1915); type: functional, organism-based;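 note: potency for reduction of bacterial viability or growth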
[16] = system: Streptococcus sp. 'group A'; assay: Streptococcus pyogenes SK(-)GAS viability under kanamycin – luminescence, BacTiterGlo, confirmation, counter-screen for streptokinase expression inhibitor project, dose response (AID 1900); type: functional, organism-based
[17] = alpha-synuclein stem-loop luciferase translation blockers – H4 neuroglioma cells, luminescence, confirmation (AID 1988); type: functional, cell-based
[18] = Luminescence Cell-Based Dose Response HTS to Identify Inhibitors of 5'UTR Stem-Loop Driven Prion Protein mRNA Translation in H4 Neuroglioblastoma Cells. [Related pubchem assays: 1827 (Project Summary), 1813 (Primary HTS)]; type: functional
[19] = luciferase reporter signal suppression in cells – H4 neuroglioma cells, luminescence, dose response (AID 1990); type: functional, cell-based

## CCc1ccc(C2=NN(S(C)(=O)=O)C(c3cccs3)C2)cc1 (configuration not stated)
[1]
  EC50: > 99 µM (inactive)
[2]
  EC50: > 99 µM (inactive)

## Cc1nc(OCc2ccccc2)c2ccccc2n1
H9c2
  IC50: > 79 µM (inactive)

## CC(=O)Oc1cc2c(c(C)c1OC(C)=O)CC=C1[C@]3(C)CC[C@]4(C)CC[C@@](C)(C(=O)O)CC4[C@]3(C)CC[C@]12C (some centres not stated)
Cytochrome P450 3A4
  AC50: 31.6 µM (inconclusive)

## N#CSCC(=O)c1cccc2ccccc12
Large T antigen
  IC50: 20.6 µM (active)
[3]
  AC50: 1.61 µM (active)

## COc1ccc(C2/C=C\CN(S(=O)(=O)c3cccc4cccnc34)CC(=O)N2Cc2ccc(F)cc2)cc1 (configuration not stated)
H9c2
  IC50: > 79 µM (inactive)

## Oc1nc(CN2CCCC2)nc2sc3c(c12)CCC3
H9c2
  IC50: > 79 µM (inactive)

## Clc1nccc2c1ccc1ccccc12
Cytochrome P450 3A4
  AC50: 12.6 µM (inconclusive)

## COc1ccc(NC(=O)C(OC(=O)c2ccc([N+](=O)[O-])o2)c2ccccc2)cc1Cl (configuration not stated)
H9c2
  IC50: > 79 µM (inactive)

## CCN(CC)C(=O)c1ccc2c3c(cccc13)C(=O)N(CCc1ccc(OC)c(OC)c1)C2=O
H9c2
  IC50: > 79 µM (inactive)

## CCn1cc(/C=C/c2cc[n+](C)cc2)c2ccccc21
BJ [4]
  EC50: 23.8 µM (active)
BJ [5]
  EC50: > 150 µM (not active)
[6]
  EC50: > 150 µM (inconclusive)
INS1
  AC50: 4.58 µM (active)
[7]
  EC50: > 150 µM (not active)
[8]
  EC50: 0.946 µM (active)
BJ [9]
  EC50: > 150 µM (not active)

## CCOC(=O)c1ccc(CC(=O)c2oc3cc(O)ccc3c2C)o1
[1]
  EC50: 81.2 µM (inactive)
[2]
  EC50: > 99 µM (inactive)

## COc1ccc(OCC(=O)Nc2c(C(=O)N(CCN(C)C)Cc3ccco3)oc3ccccc23)cc1
[10]
  CC50: > 40 µM (active)
[6]
  EC50: > 160 µM (inactive)
[8]
  EC50: > 38 µM (not active)

## CCCn1c(-c2ccc(F)cc2)nc2c(NC(C)CN(C)C)nc(C)nc21 (configuration not stated)
Cytochrome P450 3A4
  AC50: 20 µM (inconclusive)

## CCCCCCCC#Cc1ccccc1/C=N/[S+]([O-])C(C)(C)C (configuration not stated)
Cytochrome P450 3A4
  AC50: 3.16 µM (inconclusive)

## NC(=O)c1c(NC(=O)Cn2nc(C(=O)O)c3ccccc3c2=O)sc2c1CCC2
H9c2
  IC50: > 79 µM (inactive)

## O=C(NCCCc1ccccc1)c1cccc([N+](=O)[O-])c1
[11]
  EC50: > 53 µM (inactive)
[12]
  IC50: > 47.1 µM (inactive)
Fatty acid synthase [13]
  IC50: 5.56 µM (active)
Fatty acid synthase [14]
  IC50: 4.33 µM (active)

## CCOC(=O)c1[nH]c2ccc(C)cc2c1N
[6]
  EC50: > 160 µM (inconclusive)
[15]
  IC50: 24.1 µM (active)
[8]
  EC50: > 38 µM (not active)

## COc1cc(NC(=O)c2ccccc2)c(OC)cc1NC(=O)Cc1ccc(Br)cc1
[1]
  EC50: > 99 µM (inactive)
[2]
  EC50: 29.6 µM (inactive)

## O=C(C1CC1)N1CCN(c2ccc(O)cc2)CC1
Large T antigen
  IC50: 11.5 µM (active)

## Cc1cc(C)n(-c2nc3nonc3nc2Nc2cccc(C)c2C)n1
[1]
  EC50: > 99 µM (inactive)
[2]
  EC50: > 99 µM (inactive)

## COc1ccc(Cl)cc1NC(=O)CN(C)C(=O)Cn1[nH]c(=O)c2ccccc2c1=O
H9c2
  IC50: 20.7 µM (active)

## COc1ccc(OC)c(C(=O)COC(=O)c2ccc([N+](=O)[O-])o2)c1
H9c2
  IC50: > 79 µM (inactive)

## CCOC(=O)c1cc2c(=O)n3ccccc3nc2n(Cc2ccco2)/c1=N/C(=O)c1cccnc1
H9c2
  IC50: 24.3 µM (active)

## CCc1cc(C(=O)N/N=C/c2ccc(O)cc2)c2ccccc2n1
Large T antigen
  IC50: > 100 µM (active)

## CCN1C[C@@]2(COC)C3[C@@H](OC)C4[C@@H]1[C@@]3(C1C[C@@]3(O)[C@H](OC(=O)c5ccccc5)C1[C@]4(OC(C)=O)[C@@H](O)[C@@H]3OC)[C@@H](OC)C[C@H]2O (some centres not stated)
Cytochrome P450 3A4
  AC50: 31.6 µM (inconclusive)

## CCOc1cc(/C=N/Nc2nc(C)cc(O)n2)ccc1O
Large T antigen
  IC50: 24.9 µM (active)

## Cc1ccc(/C=N/NC(=O)C2=NNC(c3ccccc3)(c3ccccc3)C2)c(O)c1
Streptokinase A
  EC50: > 150 µM (not active)
[6]
  EC50: 8.56 µM (active)
Streptococcus
  EC50: > 150 µM (not active)
[8]
  EC50: 2.3 µM (active)
[16]
  EC50: 2.9 µM (active)

## COc1ccc(-c2nn(-c3ccccc3)cc2/C=N/NC(=S)NC(C)C)cc1OC
[17]
  EC50: 48.4 µM (active)
[6]
  EC50: 22.9 µM (active)
[18]
  EC50: > 120 µM (not active)
[19]
  EC50: 20.2 µM (active)
[8]
  EC50: > 38 µM (not active)

## Oc1ccc(Nc2nc(NCC3CCCO3)c3ccccc3n2)cc1 (configuration not stated)
Large T antigen
  IC50: 9.48 µM (active)

## COc1cc(O)c(C(=O)/C=C/c2ccccc2)c(OC)c1 [FLAVOKAWAIN B]
Cytochrome P450 3A4
  AC50: 15.8 µM (inconclusive)

## COc1cc(O)cc(/C=C/c2ccccc2)c1 [PINOSYLVIN METHYL ETHER]
Cytochrome P450 3A4
  AC50: 31.6 µM (inconclusive)
